The values below are quoted from earlier work in US20250034116A1, “1,4-DIHETEROCYCLIC SUBSTITUTED AROMATIC RING OR AROMATIC HETEROCYCLIC COMPOUND AND USE THEREOF” (BeBetter Med Inc., priority 2022, published 2025).

The conditions of series [1]: cited from earlier work.
Series [2] concerns Cyp4a14−/− mice. The following applies: cited from earlier work.
In series [3] the test system is Cyp4a 14−/− hypertensive mice. To be noted: Cyp4a14−/− hypertensive mice; cited from earlier work.
For series [4] the following is noted: cited from earlier work. The source holds these as a separate data set.
The subject of series [5] is cyclooxygenase and lipoxygenase. To be noted: cited from earlier work.
The subject of series [6] is 20-HETE. The following applies: read-out: inhibitory activity (inhibitor of 20-HETE); cited from earlier work.

Structures are written as SMILES.

`COCCOCCOCCOCCOCCOCCOC(=O)CCCC/C=C\CCCCCCC/C=C\CCCCO` [Compound 20-SOLA]: in series [1], the solubility result is “more water-soluble”. Further, in series [2], the hyperglycemia and hyperinsulinemia entry is “improve hyperglycemia and hyperinsulinemia”; the “weight gain induced by a high-fat diet” value is reported as “reduce the weight gain”. In addition, in series [3], the blood pressure result is “restore blood pressure to normal”.

With `CCCCc1ccc(N=CNO)c(C)c1` [HET0016], in series [4], the half-life result was “short”. In addition, the solubility result in series [1] is recorded as “poor”. Besides, the “effect on the activity of cyclooxygenase and lipoxygenase” value in series [5] is “no effect”. The IC50 in series [6] was 8.9 nM.
